{"source": "patent US20220378954A1", "about": "“METHODS FOR RADIOLABELLING GRPR ANTAGONISTS AND THEIR KITS” (NOVARTIS AG, priority 2019, published 2022)", "assay": "Peptide adhesion tests (non-specific binding of NeoB to glass and plastic surfaces)", "assay_type": "physicochemical", "conditions": "final formulation: NeoB 50 μg, Mannitol 20 mg, Kolliphor HS15 500 μg, Gentisic acid 200 μg; three independent radiolabelling tests; adhesion to the glass", "note": "Where “and” joins values, the source holds several entries; their conditions need not be identical. Equal values may be shown once."}
{"smiles": "CC(C)CC(CC(C)C)NC(=O)[C@H](Cc1cnc[nH]1)NC(=O)CNC(=O)[C@@H](NC(=O)[C@H](C)NC(=O)[C@H](Cc1c[nH]c2ccccc12)NC(=O)[C@H](CCC(N)=O)NC(=O)[C@@H](Cc1ccccc1)NC(=O)COCC(=O)Nc1ccc(CNC(=O)CN2CCN(CC(=O)O)CCN(CC(=O)O)CCN(CC(=O)O)CC2)cc1)C(C)C", "note": "[NeoB]", "values": [{"measurement": "Peptide Adhesion (%)", "value": "4.8% and 5.0% and 5.8%"}]}
